The subject of test [1] is Total hHex. Kind of test: Inhibition of total hHex. The format is biochemical, human. The settings on record: IC50 for total hHexA; NI = no inhibition detected at 200 μM.
For test [2], the target named is T1, hOGA (Homo sapiens, UniProt O60502).
T1 sequence (O60502 1-916): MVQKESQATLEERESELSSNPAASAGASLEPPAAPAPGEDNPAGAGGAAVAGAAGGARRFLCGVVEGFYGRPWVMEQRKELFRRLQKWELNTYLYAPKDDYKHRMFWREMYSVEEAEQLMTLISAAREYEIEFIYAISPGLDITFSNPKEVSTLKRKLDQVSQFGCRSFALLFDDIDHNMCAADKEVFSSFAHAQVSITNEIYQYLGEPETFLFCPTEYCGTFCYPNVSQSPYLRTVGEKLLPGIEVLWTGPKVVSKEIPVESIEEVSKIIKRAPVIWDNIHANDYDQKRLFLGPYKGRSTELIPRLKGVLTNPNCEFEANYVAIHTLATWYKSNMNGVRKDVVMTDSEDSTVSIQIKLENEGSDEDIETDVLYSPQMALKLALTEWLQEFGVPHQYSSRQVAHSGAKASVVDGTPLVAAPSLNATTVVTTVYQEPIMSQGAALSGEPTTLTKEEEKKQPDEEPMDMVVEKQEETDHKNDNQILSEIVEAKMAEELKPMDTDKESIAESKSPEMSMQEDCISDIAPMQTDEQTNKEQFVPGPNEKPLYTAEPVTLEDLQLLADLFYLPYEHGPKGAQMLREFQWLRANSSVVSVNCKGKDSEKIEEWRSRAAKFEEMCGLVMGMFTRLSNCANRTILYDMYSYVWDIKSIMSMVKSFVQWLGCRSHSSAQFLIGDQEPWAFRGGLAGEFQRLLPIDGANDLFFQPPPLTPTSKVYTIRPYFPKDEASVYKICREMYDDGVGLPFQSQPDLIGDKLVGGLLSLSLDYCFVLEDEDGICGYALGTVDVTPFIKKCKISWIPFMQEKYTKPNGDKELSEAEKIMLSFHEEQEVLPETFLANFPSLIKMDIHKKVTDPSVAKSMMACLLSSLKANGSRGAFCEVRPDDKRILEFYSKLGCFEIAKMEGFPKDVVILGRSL
Kind of test: Inhibition assay against hOGA, resorufin N-acetyl-β-D-glucosaminide fluorescence. In kind it is biochemical. The settings on record: 0.2 nM hOGA, 25 μM substrate, pH 7.1; Morrison Ki. The method, then: Inhibition Assays Against hOGA
Km=25 μM was measured with these conditions. Inhibition assays were run at 0.2 nM [hOGA] in the same buffer, in the presence or absence of various concentrations of inhibitors and at a fixed substrate concentration of 25 μM and 1% DMSO. First, inhibitor was serially diluted to the desired range of concentrations in 2% DMSO buffer. Next, 50 μL of inhibitor solutions at various concentrations in 2% DMSO Buffer was added to 50 μL of 0.8 nM enzyme and allowed to incubate at 25° C. for 5 minutes. 100 uL of 50 μM and 1% DMSO substrate was then added and reaction mixture was immediately mixed and aliquoted in 45 μL triplicates to a CORNING 384 well black plate. Fluorescence signal was measured continuously for 20 minutes at 37° C. in a BioTek Neo 2 Plate reader set at excitation and emission wavelengths of 572 and 610 nm, respectively. Max reaction rates for all inhibitor concentrations were calculated within Gen5 BioTek reader software. % Activity was subsequently calculated for each inhibitor concentration against the max reaction rate of uninhibited hOGA. GraphPad Prism 2016 was used to approximate the Morrison Ki values for each inhibitor.

In test [3] the target is β-N-acetylglucosaminidase (from jack bean). Kind of test: Inhibition assay against commercial β-N-acetylglucosaminidase (jack bean), p-nitrophenyl N-acetyl-β-D-glucosaminide substrate. In kind it is biochemical. The settings on record: pH 5.5, 37° C.; average of three determinations ± s.e.m.; NI = no inhibition detected at 200 μM; read-out: Jack beans Hex. The method, then: (§1) Inhibition Assays Against Commercial β-N-acetylglucosaminidases
(§2) Inhibition constant (Ki) values were determined by spectrophotometrically measuring the residual hydrolytic activities of the glycosidases against p-nitrophenyl N-acetyl-β-D-glucosaminide. […] Each assay was performed in phosphate-citrate buffer and the reactions were initiated by addition of the enzyme to a solution of the substrate in the absence or presence of various inhibitor concentrations. The mixture was incubated for 10-30 min at 37° C. and the reaction was quenched by addition of 1 M Na2CO3. Reaction times were appropriate to obtain 10-20% conversion of the substrate in order to achieve linear rates. The absorbance of the resulting mixture was determined at 405 nm. Approximate values of Ki were determined using a fixed concentration of substrate (around the Km value for the different glycosidases) and various inhibitor concentrations. Full Ki determinations and enzyme inhibition mode were determined from the slope of Lineweaver-Burk plots and double reciprocal analysis using a Microsoft Office Excel 2007 program.

Test [4] has as its target β-N-acetylglucosaminidase (from bovine kidney). Kind of test: Inhibition assay against commercial β-N-acetylglucosaminidase (bovine kidney), p-nitrophenyl N-acetyl-β-D-glucosaminide substrate. The settings on record: pH 5.5, 37° C.; average of three determinations ± s.e.m.; NI = no inhibition detected at 200 μM; read-out: Bovine kidney Hex. The format is biochemical. The method, then: as §1, §2

Structures can show the parent of a compound that is named as a salt.

In test [1], `CCC(=O)N[C@H]1CN2/C(=N/Cc3ccccc3)SC[C@@H]2[C@@H](O)[C@@H]1O` [Compound 13, 2-Propanamido-5-N,6-S-(N′-benzyliminomethylidene)-1,2-dideoxy-6-thionojirimycin Hydrochloride] showed an IC50 of more than 200 µM. The Ki was 7.97 nM in test [2], more than 200 µM in test [3] and more than 200 µM in test [4].
For `CCC(=O)N[C@H]1CN2/C(=N/Cc3cccc4ccccc34)SC[C@@H]2[C@@H](O)[C@@H]1O` [Compound 14, 2-Propionamido-5-N,6-S-(N′-1-naphthylmethyliminomethylidene)-1,2-dideoxy-6-thionojirimycin hydrochloride], the IC50 in test [1] is more than 200 µM. Moreover, the Ki in test [2] is 0.701 nM; in test [3] it was more than 200 µM; in test [4], more than 200 µM.
Regarding `CCC(=O)N[C@H]1CN2/C(=N/Cc3ccc4[nH]ccc4c3)SC[C@@H]2[C@@H](O)[C@@H]1O` [Compound 15, 2-Propionamido-5-N,6-S-(N′-5-indolylmethyliminomethylidene)-1,2-dideoxy-6-thionojirimycin hydrochloride], the IC50 in test [1] was more than 200 µM. Further, the results for the Ki in test [2], in test [3] and in test [4] were 0.657 nM, more than 200 µM and more than 200 µM, respectively.
In test [1], `CC(C)C(=O)N[C@H]1CN2/C(=N/Cc3ccccc3)SC[C@@H]2[C@@H](O)[C@@H]1O` [Compound 16, 2-Isobutanamido-5-N,6-S-(N′-benzyliminomethylidene)-1,2-dideoxy-6-thionojirimycin Hydrochloride] gave an IC50 of more than 200 µM. In addition, the values for the Ki in test [2], in test [3] and in test [4] were 888 nM, more than 200 µM and more than 200 µM, respectively.
Consider `CCCC(=O)N[C@H]1CN2/C(=N/Cc3ccccc3)SC[C@@H]2[C@@H](O)[C@@H]1O` [Compound 17, 2-Butanamido-5-N,6-S-(N′-benzyliminomethylidene)-1,2-dideoxy-6-thionojirimycin], for which, in test [1], the IC50 is more than 200 µM. The Ki was 337 nM in test [2], more than 200 µM in test [3] and more than 200 µM in test [4].
`CCNC(=S)N[C@H]1CN2/C(=N/Cc3ccccc3)SC[C@@H]2[C@@H](O)[C@@H]1O` [Compound 18, 2-Ethylthioureido-5-N,6-S-(N′-benzyliminomethylidene)-1,2-dideoxy-6-thionojirimycin] came in with an IC50 in test [1] of more than 200 µM. Also, the Ki in test [2] is 1060 nM; in test [3], more than 200 µM; in test [4], more than 200 µM.
In the case of `CCCNC(=S)N[C@H]1CN2/C(=N/Cc3ccccc3)SC[C@@H]2[C@@H](O)[C@@H]1O` [Compound 19, 2-Propylthioureido-5-N,6-S-(N′-benzyliminomethylidene)-1,2-dideoxy-6-thionojirimycin], the IC50 in test [1] is more than 200 µM. In addition, the results for the Ki in test [2], in test [3] and in test [4] were 762 nM, more than 200 µM and more than 200 µM, respectively.

By IC50 is commonly meant the point on the concentration scale where inhibition reaches its midpoint. The low end stands for greater potency in that assay, the high end for weaker potency in that assay.
